From patent US9278990B2, “Substituted nucleotide analogs” (priority 2010, dated 2016)
Where a chain is given by its changes, count along the chain named.

B1: IFN-Lambda 2 (protein, UniProt Q8IZJ0 26-200, looked up)
Interferon lambda-2: VPVARLHGALPDARGCHIAQFKSLSPQELQAFKRAKDALEESLLLKDCRCHSRLFPRTWDLRQLQVRERPMALEAELALTLKVLEATADTDPALVDVLDQPLHTLHHILSQFRACIQPQPTAGPRTRGRLHHWLYRLQEAPKKESPGCLEASVTFNLFRLLTRDLNCVASGDLCV
B2: IFN-Lambda 3 (protein, UniProt Q8IZI9 22-196, looked up)
Interferon lambda-3: B1 Interferon lambda-2 with H7R, R49K, H51R, M71V, V95G, F112L, Y135H
B3: IFN-Lambda 1 (protein, UniProt Q8IU54 20-200, looked up)
Interferon lambda-1: GPVPTSKPTTTGKGCHIGRFKSLSPQELASFKKARDALEESLKLKNWSCSSPVFPGNWDLRLLQVRERPVALEAELALTLKVLEAAAGPALEDVLDQPLHTLHHILSQLQACIQPQPTAGPRPRGRLHHWLHRLQEAPKKESAGCLEASVTFNLFRLLTRDLKYVADGNLCLRTSTHPEST

System: Huh-7 cells containing the self-replicating, subgenomic HCV replicon
Assay: HCV replicon assay (luciferase reporter)
Assay type: cell-based
Settings: Hepatitis C virus, Huh-7, 72 h
Method: Huh-7 cells containing the self-replicating, subgenomic HCV replicon with a stable luciferase (LUC) reporter were cultured in Dulbecco's modified Eagle's medium (DMEM) containing 2 mM L-glutamine and supplemented with 10% heat-inactivated fetal bovine serum (FBS), 1% penicillin-streptomyocin, 1% nonessential amino acids, and 0.5 mg/mL G418.
On the first day, 5,000 HCV replicon cells were plated per well in a 96-well plate. On the following day, test compounds were solubilized in 100% DMSO to 100× the desired final testing concentration. Each compound was then serially diluted (1:3) up to 9 different concentrations. Compounds in 100% DMSO are reduced to 10% DMSO by diluting 1:10 in cell culture media. The compounds were diluted to 10% DMSO with cell culture media, which were used to dose the HCV replicon cells in 96-well format. The final DMSO concentration was 1%. The HCV replicon cells were incubated at 37° C. for 72 hours. At 72 hours, cells were processed when the cells are still subconfluent. Compounds that reduce the LUC signal are determined by Bright-Glo Luciferase Assay (Promega, Madison, Wis.). Percent Inhibition was determined for each compound concentration in relation to the control cells (untreated HCV replicon) to calculate the EC50.

| Molecule | EC50 [nM] |
| --- | --- |
| CC(C)OC(=O)[C@H](C)NP(=S)(OC[C@H]1O[C@@H](n2ccc(=O)[nH]c2=O)[C@](C)(O)[C@@H]1O)Oc1ccccc1 (stereo partly drawn) | < 1000 |
| CC(C)OC(=O)[C@H](C)NP(=S)(OC[C@H]1O[C@@H](n2ccc(=O)[nH]c2=O)[C@](C)(O)[C@@H]1O)Oc1ccc(Cl)cc1 (stereo partly drawn) | < 1000 |
| CC(C)OC(=O)[C@H](C)NP(=S)(OC[C@H]1O[C@@H](n2ccc(=O)[nH]c2=O)[C@](C)(O)[C@@H]1O)Oc1ccccc1Cl (stereo partly drawn) | < 1000 |
| CC(C)OC(=O)[C@H](C)NP(=S)(OC[C@H]1O[C@@H](n2ccc(=O)[nH]c2=O)[C@](C)(O)[C@@H]1O)Oc1ccc(F)c(Cl)c1 (stereo partly drawn) | < 1000 |
| Cc1ccc(OP(=S)(N[C@@H](C)C(=O)OC(C)C)OC[C@H]2O[C@@H](n3ccc(=O)[nH]c3=O)[C@](C)(O)[C@@H]2O)cc1 (stereo partly drawn) | < 1000 |
| Cc1ccccc1OP(=S)(N[C@@H](C)C(=O)OC(C)C)OC[C@H]1O[C@@H](n2ccc(=O)[nH]c2=O)[C@](C)(O)[C@@H]1O (stereo partly drawn) | < 1000 |
| COc1ccc(OP(=S)(N[C@@H](C)C(=O)OC(C)C)OC[C@H]2O[C@@H](n3ccc(=O)[nH]c3=O)[C@](C)(O)[C@@H]2O)cc1 (stereo partly drawn) | < 1000 |
| CC(C)OC(=O)[C@H](C)NP(=S)(OC[C@H]1O[C@@H](n2ccc(=O)[nH]c2=O)[C@](C)(O)[C@@H]1O)Oc1cccc2ncccc12 (stereo partly drawn) | < 1000 |
| CC(C)OC(=O)[C@H](C)NP(=S)(OC[C@H]1O[C@@H](n2ccc(=O)[nH]c2=O)[C@](C)(O)[C@@H]1O)Oc1cccnc1 (stereo partly drawn) | < 1000 |
| CSCC[C@H](NP(=S)(OC[C@H]1O[C@@H](n2ccc(=O)[nH]c2=O)[C@](C)(O)[C@@H]1O)Oc1ccccc1)C(=O)OC(C)C (stereo partly drawn) | 1000 to 10000 |
| CC(C)OC(=O)CNP(=S)(OC[C@H]1O[C@@H](n2ccc(=O)[nH]c2=O)[C@](C)(O)[C@@H]1O)Oc1ccccc1 (stereo partly drawn) | 1000 to 10000 |
| CC[C@H](NP(=S)(OC[C@H]1O[C@@H](n2ccc(=O)[nH]c2=O)[C@](C)(O)[C@@H]1O)Oc1ccccc1)C(=O)OC(C)C (stereo partly drawn) | < 1000 |
| CCC[C@H](NP(=S)(OC[C@H]1O[C@@H](n2ccc(=O)[nH]c2=O)[C@](C)(O)[C@@H]1O)Oc1ccccc1)C(=O)OC(C)C (stereo partly drawn) | < 1000 |
| CC(C)OC(=O)[C@H](Cc1ccccc1)NP(=S)(OC[C@H]1O[C@@H](n2ccc(=O)[nH]c2=O)[C@](C)(O)[C@@H]1O)Oc1ccccc1 (stereo partly drawn) | 1000 to 10000 |
| CC(C)OC(=O)C(C)NP(=S)(OC[C@H]1O[C@@H](n2cnc3c(=O)[nH]c(N)nc32)C(C)(O)C1O)Oc1ccccc1 (stereo partly drawn) | < 1000 |

Molecular target: T1, NS5B570-Con1 (Delta-21) (Hepatitis C virus genotype 1b, UniProt Q9WMX2)
T1 construct: NS5B570-Con1 (Delta-21)
Assay: NS5B inhibition assay
Assay type: biochemical, HCV
Settings: IC50 value, incorporation of tritiated NMP into acid-insoluble RNA, 2 hours at 37° C.
Method: The enzyme activity of NS5B570-Con1 (Delta-21) was measured as an incorporation of tritiated NMP into acid-insoluble RNA products. The complementary IRES (cIRES) RNA sequence was used as a template, corresponding to 377 nucleotides from the 3′-end of HCV (−) strand RNA of the Con-1 strain, with a base content of 21% Ade, 23% Ura, 28% Cyt, and 28% Gua. The cIRES RNA was transcribed in vitro using a T7 transcription kit (Ambion, Inc.) and purified using the Qiagen RNeasy maxi kit. HCV polymerase reactions contained 50 nM NS5B570-Con1, 50 nM cIRES RNA, about 0.5 μCi tritiated NTP, 1 μM of competing cold NTP, 20 mM NaCl, 40 mM Tris-HCl (pH 8.0), 4 mM dithiothreitol, and 4 mM MgCl2. Standard reactions were incubated for 2 hours at 37° C., in the presence of increasing concentration of inhibitor. At the end of the reaction, RNA was precipitated with 10% TCA, and acid-insoluble RNA products were filtered on a size exclusion 96-well plate. After washing of the plate, scintillation liquid was added and radio labeled RNA products were detected according to standard procedures with a Trilux Topcount scintillation counter.

| Molecule | IC50 [nM] |
| --- | --- |
| C[C@@]1(O)[C@H](O)[C@@H](COP(O)(=S)OP(=O)(O)OP(=O)(O)O)O[C@H]1n1ccc(=O)[nH]c1=O (single isomer, unassigned) [Compound 5a] | 10000 to 100000 |

System: HCV genotype 1b HCV replicon harbored in Huh7 cells
Assay: Combination testing in HCV replicon (CalcuSyn CI and MacSynergy II synergy volume)
Assay type: cell-based
Settings: combination of compound 3b with the listed combination compound; MacSynergy II (Bliss independence); 72 h; 25-100 synergistic, >100 strongly synergistic
Method: Two or more test compounds were tested in combination with each other using an HCV genotype 1b HCV replicon harbored in Huh7 cells with a stable luciferase (LUC) reporter. Cells were cultured under standard conditions in Dulbecco's modified Eagle's medium (DMEM; Mediatech Inc, Herndon, Va.) containing 10% heat-inactivated fetal bovine serum (FBS; Mediatech Inc, Herndon, Va.) 2 mM L-glutamine, and nonessential amino acids (JRH Biosciences). HCV replicon cells were plated in a 96-well plate at a density of 10^4 cells per well in DMEM with 10% FBS. […] The cells were incubated with no compound as a control, with the test compounds, or the combination of compounds for 72 h. The direct effects of the combination of the test compounds were examined using a luciferase (LUC) based reporter as determined by the Bright-Glo Luciferase Assay (Promega, Madison, Wis.). Dose-response curves were determined for individual compounds and fixed ratio combinations of two or more test compounds.
The effects of test compound combinations were evaluated by two separate methods. In the Loewe additivity model, the experimental replicon data was analyzed by using CalcuSyn (Biosoft, Ferguson, Mo.), a computer program based on the method of Chou and Talalay. The program uses the experimental data to calculate a combination index (CI) value for each experimental combination tested. A CI value of <1 indicates a synergistic effect, a CI value of 1 indicates an additive effect, and a CI value of >1 indicates an antagonistic effect.
The second method utilized for evaluating combination effects used a program called MacSynergy II. MacSynergy II software was kindly provided by Dr. M. Prichard (University of Michigan). The Prichard Model allows for a three-dimensional examination of drug interactions and a calculation of the synergy volume (units: μM^2 %) generated from running the replicon assay using a checkerboard combination of two or more inhibitors. The volumes of synergy (positive volumes) or antagonism (negative volumes) represent the relative quantity of synergism or antagonism per change in the concentrations of the two drugs. Synergy and antagonism volumes are defined based on the Bliss independence model. In this model, synergy volumes of less than −25 indicate antagonistic interactions, volumes in the −25-25 range indicate additive behavior, volumes in the 25-100 range indicate synergistic behavior and volumes >100 indicate strong synergistic behavior.

| Molecule | Synergy Volume [μM^2%] |
| --- | --- |
| COc1ccc2c(O[C@@H]3C[C@H]4C(=O)N[C@]5(C(=O)O)C[C@H]5/C=C\CCCCC[C@H](NC(=O)OC5CCCC5)C(=O)N4C3)cc(-c3csc(NC(C)C)n3)nc2c1 [BILN-2061] | 31 |
| COC(=O)N[C@H](C(=O)N1CCC[C@H]1c1nc(-c2ccc(-c3ccc(-c4c[nH]c([C@@H]5CCCN5C(=O)[C@@H](NC(=O)OC)C(C)C)n4)cc3)cc2)c[nH]1)C(C)C [BMS-790052] | 26 |
| CCc1cc(CC[C@]2(C3CCCC3)CC(O)=C(Cc3nc4nc(C)cc(C)n4n3)C(=O)O2)cc(CC)n1 [Filibuvir] | 23 |
| Fc1ccccc1-c1nc2ccn(Cc3ccc(-c4ccc(C(F)(F)F)cc4C(F)(F)F)nn3)cc-2n1 [GS-9190] | 79 |
| CNC(=O)c1c(-c2ccc(F)cc2)oc2cc(N(CCO)S(C)(=O)=O)c(C3CC3)cc12 [HCV-796] | 31 |
| COc1nc(N)nc2c1ncn2[C@@H]1O[C@H](COP(=O)(N[C@@H](C)C(=O)OCC(C)(C)C)Oc2cccc3ccccc23)[C@@H](O)[C@@]1(C)O (stereo partly drawn) [INX-189] | 65 |
| CC(C)(C)OC(=O)N[C@H]1CCCCC/C=C\[C@@H]2C[C@@]2(C(=O)NS(=O)(=O)C2CC2)NC(=O)[C@@H]2C[C@@H](OC(=O)N3Cc4cccc(F)c4C3)CN2C1=O [ITMN-191] | 126 |
| CCOc1nc(N)nc2c1ncn2[C@@H]1O[C@@H]2COP(=O)(OC(C)C)O[C@H]2[C@@]1(C)F (stereo partly drawn) [PSI-938] | 27 |
| C[C@@]1(F)[C@H](O)[C@@H](CO)O[C@H]1n1ccc(N)nc1=O [PSI-6130] | 15 |
| CC(C)OC(=O)[C@H](C)NP(=O)(OC[C@H]1O[C@@H](n2ccc(=O)[nH]c2=O)[C@](C)(F)[C@@H]1O)Oc1ccccc1 (stereo partly drawn) [PSI-7851] | 0 |
| NC(=O)c1ncn([C@@H]2O[C@H](CO)[C@@H](O)[C@H]2O)n1 [Ribavirin, ribavirin] | 22 |
| COc1ccc2c(O[C@@H]3C[C@H]4C(=O)N[C@]5(C(=O)NS(=O)(=O)C6CC6)C[C@H]5/C=C\CCCCN(C)C(=O)[C@@H]4C3)cc(-c3nc(C(C)C)cs3)nc2c1C [TMC-435] | 126 |
| CC(C)(C)C#Cc1cc(N(C(=O)[C@H]2CC[C@H](C)CC2)[C@H]2CC[C@H](O)CC2)c(C(=O)O)s1 [VX-222] | 38 |
| CCC[C@H](NC(=O)[C@@H]1[C@H]2CCC[C@H]2CN1C(=O)[C@@H](NC(=O)[C@@H](NC(=O)c1cnccn1)C1CCCCC1)C(C)(C)C)C(=O)C(=O)NC1CC1 [VX-950, Telaprevir] | 76 |
| B1 | 34 |
| B2 | 35 |
| B3 | 116 |
